Laboratory results published in paper PMC6820371, “Terbium-161 for PSMA-targeted radionuclide therapy of prostate cancer” (European Journal of Nuclear Medicine and Molecular Imaging, 2019).

Assays:
[1] = Stability of radioligand incubated in saline (radiolytic degradation); format: physicochemical
Procedure: The radiolabeling of PSMA-617 (Advanced Biochemical Compounds, ABX GmbH, Radeberg, Germany) with ^161Tb was performed under standard labeling conditions (Supplementary material). […] The n-octanol/PBS distribution coefficient (logD) was determined for ^161Tb-PSMA-617 (Supplementary material). All of these experiments were performed as previously reported for ^177Lu-PSMA-617 [27].

[2] = test system: PSMA-negative PC-3 flu tumor cells; assay: Tumor cell uptake and internalization; format: cell-based; conditions: 2–4 h incubation
PC-3 PIP tumor cells = assay: Cell viability assay (MTT assay); format: cell-based, human
Procedure: The detailed methods of these studies, including dosimetric calculations, are described in the Supplementary material. The results were analyzed for statistical significance by a two-way ANOVA with Sidak’s multiple comparison post-test using Graph Pad Prism (version 7).
Methods: Tumor cell viability was assessed using a 3-(4,5-dimethylthiazol-2-yl)-2,5-diphenyltetrazolium bromide (MTT) assay as described by Mosmann. PC-3 PIP tumor cells (2500 cells in 200 μL RPMI medium with supplements) were seeded in 96-well plates and incubated overnight (37°C; 5% CO2) to allow adhesion of the tumor cells. The supernatants were removed and the tumor cells were washed once with 200 μL PBS. Afterwards, the tumor cells were incubated in 200 μL RPMI medium (without supplements) containing ^161Tb-PSMA-617 or ^177Lu-PSMA-617 (0.01‒20 MBq/mL), respectively, or just RPMI medium without addition of radioligands. PSMA-negative PC-3 flu tumor cells were also treated with these radioligands under the same experimental conditions using the same concentration range. Additional cell viability assays were performed with PC-3 PIP tumor cells incubated with RPMI medium (without supplements) containing ^161Tb-diethylenetriaminepentaacetic acid (DPTA) or ^177Lu-DTPA (0.01 – 20 MBq/mL). After 4 h incubation (37 °C; 5% CO2), the tumor cells were washed once with 200 μL PBS, followed by the addition of 200 μL of RPMI medium (with supplements) to each well. The tumor cells were left to grow for 6 days under standard cell culture conditions (37 °C, 5% CO2). At Day 6 after treatment, MTT reagent (5 mg/mL in PBS, 30 μL per well) was added to each well to allow the formation of dark-violet formazan crystals within 4 h incubation. The crystals were dissolved by the addition of dimethyl sulfoxide to determine the absorbance at 560 nm using a microplate reader (Victor X3, Perkin Elmer). Cell viability was quantified by expressing the absorbance of the test samples as percentage of the absorbance of control (untreated) cell samples which was set to 100%. Statistical analysis was performed using a two-way ANOVA with Sidak’s multiple comparison post-test in Graph Pad Prism (version 7).

[3] = test system: PSMA-negative PC-3 flu tumor cells; assay: Cell survival assay (clonogenic assay); format: cell-based; conditions: 1 MBq/mL and higher, p > 0.05
[4] = test system: PC-3 PIP/flu tumor-bearing mice; conditions: ~25 MBq
Procedure: In a separate study, SPECT/CT experiments were performed 12–14 days after tumor cell inoculation using a dedicated small-animal SPECT/CT camera (NanoSPECT/CT^TM, Mediso Medical Imaging Systems, Budapest, Hungary) as previously reported (Supplementary material) [34]. ^161Tb-PSMA-617 (~25 MBq/nmol) was diluted in saline for injection. Scans were acquired at 1 h, 4 h, and 24 h after injection of the radioligands (~25 MBq, 1 nmol, 100 μL). During the in-vivo scans, mice were anesthetized using a mixture of Isoflurane and oxygen.
Methods: Mice were inoculated with PC-3 PIP/flu tumor cells, as described for biodistribution studies, and injected with ^161Tb-PSMA-617 (~25 MBq, 1 nmol per mouse) about 12-14 days later. Under these conditions, the SPECT scans lasted for ~40 min. […] During the in-vivo scans, mice were anesthetized using a mixture of Isoflurane and oxygen.
SPECT/CT experiments were performed using a dedicated small-animal SPECT/CT camera (NanoSPECT/CT^TM, Mediso Medical Imaging Systems, Budapest, Hungary) as previously reported [4, 10]. The images were acquired using Nucline software (version 1.02, Mediso Ltd., Budapest, Hungary). The real-time CT reconstruction used a cone-beam-filtered backprojection. […] The lower scale of radioactivity was cut by 1% to make tumors and kidneys best visible.

In the case of `O=C([O-])CN1CCN(CC(=O)[O-])CCN(CC(=O)NCC2CCC(C(=O)NC(Cc3ccc4ccccc4c3)C(=O)NCCCCC(NC(=O)NC(CCC(=O)O)C(=O)O)C(=O)O)CC2)CCN(CC(=O)[O-])CC1.[161Tb+3]` (stereo not drawn) [^161Tb-PSMA-617], the “Stability (intact radioligand)” value ([1]; 50 MBq/nmol, 250 MBq/500 μL, at least 1 h, without L-ascorbic acid) is reported as over 98%, the “Stability when incubated for longer time periods” value ([1]; 250 MBq/500 μL, longer than 1 h, without L-ascorbic acid) is reported as “radiolytic degradation” and the “Stability (intact radioligand)” value ([1]; in the presence of L-ascorbic acid, up to 24 h) is reported as at least 98%. The “Uptake in PC-3 flu tumor cells” value [2] was under 0.5%, the “Reduction of tumor-cell viability compared to ^177Lu-PSMA-617” value (PC-3 PIP tumor cells; 0.1–10 MBq/mL, p < 0.05) was “significantly more effective” and the “Effectiveness in vitro relative to ^177Lu-PSMA-617” value (PC-3 PIP tumor cells; viability and survival of PC-3 PIP tumor cells) was “up to 3 fold”. The “Effect on survival of PC-3 flu cells compared to ^177Lu-PSMA-617” value [3] was “tendency of a more pronounced effect”, the “Uptake in the PSMA-negative PC-3 flu tumor (SPECT/CT)” value ([4]; 1 h, 4 h and 24 h p.i.) was “negligible uptake” and the “Renal excretion of activity (SPECT/CT)” value ([4]; after 4 h) was “almost entirely excreted”.
